Source: patent US20220401514A1, “ANTIMICROBIAL, BACTERIOPHAGE-DERIVED POLYPEPTIDES AND THEIR USE AGAINST GRAM-NEGATIVE AND ACID-FAST BACTERIA” (CONTRAFECT CORPORATION, priority 2019, published 2022)

What was measured:
[1] = system: outer membrane of Gram-negative bacteria (including P. aeruginosa, E. cloacae, K. pneumoniae, E. coli, and A. baumannii); assay: Outer membrane permeabilization, NPN uptake; format: cell-based
Description: NPN is largely excluded by intact Gram-negative bacteria, but enhanced uptake of NPN may occur in cells having a damaged or permeable outer membrane. NPN fluoresces strongly under hydrophobic conditions and weakly under aqueous conditions. Therefore, NPN's interaction with membrane phospholipids in the bacterial envelope increases its fluorescence signal and can be used as an indication of a compromised bacterial membrane and a measurement of the outer membrane permeability.

LPS = assay: Endotoxin neutralization, limulus amoebocyte lysate (LAL) enzyme assay, LPS binding; format: biochemical; settings: LPS 0.8 EU/mL
Description: CHEM. […] The standard reference samples contained only LPS dissolved in pyrogen-free water. Solutions were mixed well and incubated at 24° C. for 1 hour, and the manufacturers' test procedure for quantitative detection of endotoxins was followed.

[2] = system: Acinetobacter baumannii isolates; assay: MIC against CDC Acinetobacter baumannii panel (n = 41); format: cell-based
[3] = system: A. baumannii strain BAA-747 persister cells; assay: Activity against persister cells, A. baumannii; format: cell-based, Acinetobacter baumannii
[4] = system: Gram-negative with varying susceptibility to imipenem and relebactam; assay: MIC against CDC Imipenem/Relebactam panel (n = 28); format: cell-based
Description: MIC values were determined using the methodology described above, i.e., the standard broth microdilution reference method defined by CLSI.
See wwwn.cdc.gov/ARIsolateBank/Panel/PanelDetail?ID=10.

Sequence: MRLKMARRRYRLPRRRSRRLFSRTALRMHPRNRLRRIMRGGIRF [Chp2]
- outer membrane permeability (NPN uptake) [1]: dose-dependent increase in outer membrane permeability, equivalent to that of colistin, LL37, and melittin
- LPS binding (LPS; […]-64 μg/mL, 24° C., 1 hour): demonstrate binding to LPS
- % LPS Bound (LPS; peptide concentration 0.5 μg/mL): 28.7%
- % LPS Bound (LPS; peptide concentration 1 μg/mL): 28.0%
- % LPS Bound (LPS; peptide concentration 2 μg/mL): 27.0%
- % LPS Bound (LPS; peptide concentration 4 μg/mL): 29.3%
- % LPS Bound (LPS; peptide concentration 8 μg/mL): 31.0%
- % LPS Bound (LPS; peptide concentration 16 μg/mL): 40.8%
- % LPS Bound (LPS; peptide concentration 32 μg/mL): 58.1%
- % LPS Bound (LPS; peptide concentration 64 μg/mL): 71.0%
- MIC50 ([2]; Actinobacter baumannii panel): 0.5 µg/mL
- MIC90 ([2]; Actinobacter baumannii panel): 1 µg/mL
- MIC ([2]; CDC Antibiotic-Resistant Bank No. 0273): 1 µg/mL
- MIC ([2]; CDC Antibiotic-Resistant Bank No. 0274): 0.5 µg/mL
- MIC ([2]; CDC Antibiotic-Resistant Bank No. 0275): 0.5 µg/mL
- MIC ([2]; CDC Antibiotic-Resistant Bank No. 0276): 0.5 µg/mL
- MIC ([2]; CDC Antibiotic-Resistant Bank No. 0277): 0.5 µg/mL
- MIC ([2]; CDC Antibiotic-Resistant Bank No. 0278): 1 µg/mL
- MIC ([2]; CDC Antibiotic-Resistant Bank No. 0279): 1 µg/mL
- MIC ([2]; CDC Antibiotic-Resistant Bank No. 0280): 1 µg/mL
- MIC ([2]; CDC Antibiotic-Resistant Bank No. 0281): 1 µg/mL
- MIC ([2]; CDC Antibiotic-Resistant Bank No. 0282): 0.5 µg/mL
- MIC ([2]; CDC Antibiotic-Resistant Bank No. 0283): 1 µg/mL
- MIC ([2]; CDC Antibiotic-Resistant Bank No. 0284): 0.5 µg/mL
- MIC ([2]; CDC Antibiotic-Resistant Bank No. 0285): 0.5 µg/mL
- MIC ([2]; CDC Antibiotic-Resistant Bank No. 0286): 1 µg/mL
- MIC ([2]; CDC Antibiotic-Resistant Bank No. 0287): 0.5 µg/mL
- MIC ([2]; CDC Antibiotic-Resistant Bank No. 0288): 0.25 µg/mL
- MIC ([2]; CDC Antibiotic-Resistant Bank No. 0289): 0.5 µg/mL
- MIC ([2]; CDC Antibiotic-Resistant Bank No. 0290): 0.5 µg/mL
- MIC ([2]; CDC Antibiotic-Resistant Bank No. 0291): 0.5 µg/mL
- MIC ([2]; CDC Antibiotic-Resistant Bank No. 0292): 0.5 µg/mL
- MIC ([2]; CDC Antibiotic-Resistant Bank No. 0293): 0.5 µg/mL
- MIC ([2]; CDC Antibiotic-Resistant Bank No. 0294): 0.5 µg/mL
- MIC ([2]; CDC Antibiotic-Resistant Bank No. 0295): 1 µg/mL
- MIC ([2]; CDC Antibiotic-Resistant Bank No. 0296): 0.5 µg/mL
- MIC ([2]; CDC Antibiotic-Resistant Bank No. 0297): 1 µg/mL
- MIC ([2]; CDC Antibiotic-Resistant Bank No. 0298): 0.5 µg/mL
- MIC ([2]; CDC Antibiotic-Resistant Bank No. 0299): 1 µg/mL
- MIC ([2]; CDC Antibiotic-Resistant Bank No. 0300): 2 µg/mL
- MIC ([2]; CDC Antibiotic-Resistant Bank No. 0301): 1 µg/mL
- MIC ([2]; CDC Antibiotic-Resistant Bank No. 0302): 1 µg/mL
- MIC ([2]; CDC Antibiotic-Resistant Bank No. 0303): 1 µg/mL
- MIC ([2]; CDC Antibiotic-Resistant Bank No. 0304): 0.5 µg/mL
- MIC ([2]; CDC Antibiotic-Resistant Bank No. 0305): 0.5 µg/mL
- MIC ([2]; CDC Antibiotic-Resistant Bank No. 0306): 0.5 µg/mL
- MIC ([2]; CDC Antibiotic-Resistant Bank No. 0307): 1 µg/mL
- MIC ([2]; CDC Antibiotic-Resistant Bank No. 0308): 1 µg/mL
- MIC ([2]; CDC Antibiotic-Resistant Bank No. 0309): 1 µg/mL
- MIC ([2]; CDC Antibiotic-Resistant Bank No. 0310): 0.5 µg/mL
- MIC ([2]; CDC Antibiotic-Resistant Bank No. 0311): 0.5 µg/mL
- MIC ([2]; CDC Antibiotic-Resistant Bank No. 0312): 0.5 µg/mL
- MIC ([2]; CDC Antibiotic-Resistant Bank No. 0313): 0.5 µg/mL
- MIC Log10 (CFU/mL) Run #1 ([3]; A. baumannii BAA-747 persister cells, 1 hour at 37° C., Run #1, limit of detection 1.6-log10 CFU/mL): 1.5 Log10 (CFU/mL)
- MIC Log10 (CFU/mL) Run #2 ([3]; A. baumannii BAA-747 persister cells, 1 hour at 37° C., Run #2, limit of detection 1.6-log10 CFU/mL): 2.2 Log10 (CFU/mL)
- MIC Log10 (CFU/mL) Run #3 ([3]; A. baumannii BAA-747 persister cells, 1 hour at 37° C., Run #3, limit of detection 1.6-log10 CFU/mL): 1.5 Log10 (CFU/mL)
- MIC Log10 (CFU/mL) Average ([3]; A. baumannii BAA-747 persister cells, average of 3 runs): 1.8 Log10 (CFU/mL)
- Delta Log ([3]; A. baumannii BAA-747 persister cells, log10 CFU/mL reduction as compared to buffer): 3.1
- log10 CFU/mL reduction as compared to buffer ([3]; A. baumannii persister cells, 1 hour at 37° C.): 3.1 log10 CFU/mL
- MIC ([4]; Bank No. 0501, Enterobacter cloacae): 0.5 µg/mL
- MIC ([4]; Bank No. 0502, Enterobacter cloacae): 0.5 µg/mL
- MIC ([4]; Bank No. 0504, Klebsiella pneumoniae): 0.5 µg/mL
- MIC ([4]; Bank No. 0505, Klebsiella pneumoniae): 1 µg/mL
- MIC ([4]; Bank No. 0506, Klebsiella pneumoniae): 1 µg/mL
- MIC ([4]; Bank No. 0507, Klebsiella pneumoniae): 0.5 µg/mL
- MIC ([4]; Bank No. 0508, Pseudomonas aeruginosa): 1 µg/mL
- MIC ([4]; Bank No. 0509, Pseudomonas aeruginosa): 1 µg/mL
- MIC ([4]; Bank No. 0510, Pseudomonas aeruginosa): 0.5 µg/mL
- MIC ([4]; Bank No. 0511, Pseudomonas aeruginosa): 0.5 µg/mL
- MIC ([4]; Bank No. 0512, Pseudomonas aeruginosa): 1 µg/mL
- MIC ([4]; Bank No. 0513, Pseudomonas aeruginosa): 0.5 µg/mL
- MIC ([4]; Bank No. 0514, Pseudomonas aeruginosa): 1 µg/mL
- MIC ([4]; Bank No. 0515, Pseudomonas aeruginosa): 0.5 µg/mL
